Consider 12 compounds from US20250154141A1 (University of Florida Research Foundation, Incorporated, priority 2021, published 2025).

The subject of one assay is MOLT-4. The assay can be described thus: Cell viability assay (MTS) in MOLT-4 cells. Type of assay: cell-based. Particulars: Homo sapiens. Here is the method: (§1) Acute lymphoblastic leukemia cells (MOLT-4 and RS4; 11) were incubated with increasing concentrations of Bcl-xL degraders for 48 h. Cell viability was measured by tetrazolium-based MTS assay.
For a further assay, the system named is RS4; 11. The assay can be described thus: Cell viability assay (MTS) in RS4; 11 cells. Type of assay: cell-based. The settings on record: Homo sapiens. On the procedure: as §1
The mark [1] stands for this setting: MOLT-4, Table 2, 48 hr, MTS, read-out: Anti-Cancer Activity IC50 (48 hr) MOLT-4.
The mark [2] stands for this setting: RS4-11, Table 2, 48 hr, MTS, read-out: Anti-Cancer Activity IC50 (48 hr) RS4, 11.

The structures appear in SMILES notation. Like-named read-outs stand apart in the source and are kept apart here.

For orientation: IC50 means the midpoint of a concentration-inhibition curve. With `Cc1ncsc1-c1ccc([C@H](C)NC(=O)[C@@H]2C[C@@H](O)CN2C(=O)[C@@H](NC(=O)CCCCCOCc2cn(CC3(C)CCC(c4ccc(Cl)cc4)=C(CN4CCN(c5ccc(C(=O)NS(=O)(=O)c6ccc(N[C@H](CCN7CCOCC7)CSc7ccccc7)c(S(=O)(=O)C(F)(F)F)c6)cc5)CC4)C3)nn2)C(C)(C)C)cc1` (stereo partly drawn) [Compound 20, (2S,4R)-1-((2S)-2-(6-((1-((4′-chloro-4-methyl-6-((4-(4-(((4-(((R)-4-morpholino-1-(phenylthio)butan-2-yl)amino)-3-((trifluoromethyl)sulfonyl)phenyl)sulfonyl)carbamoyl)phenyl)piperazin-1-yl)methyl)-2,3,4,5-tetrahydro-[1,1′-biphenyl]-4-yl)methyl)-1H-1,2,3-triazol-4-yl)methoxy)hexanamido)-3,3-dimethylbutanoyl)-4-hydroxy-N—((S)-1-(4-(4-methylthiazol-5-yl)phenyl)ethyl)pyrrolidine-2-carboxamide], the 50% inhibitory concentration (IC50) with MOLT-4 (setting [1]) was 20 to 100 nM; in the assay with MOLT-4 (MOLT-4, Table 5, 48 h, read-out: MOLT-4 48 h IC50) it was 88.1 nM; in the assay on RS4; 11 (setting [2]), under 20 nM; in the assay on RS4; 11 (RS4-11, Table 5, 48 h, read-out: RS4 48 h IC50), 15.6 nM.

`Cc1ncsc1-c1ccc([C@H](C)NC(=O)[C@@H]2C[C@@H](O)CN2C(=O)[C@@H](NC(=O)COCCOCc2cn(CC3(C)CCC(c4ccc(Cl)cc4)=C(CN4CCN(c5ccc(C(=O)NS(=O)(=O)c6ccc(N[C@H](CCN7CCOCC7)CSc7ccccc7)c(S(=O)(=O)C(F)(F)F)c6)cc5)CC4)C3)nn2)C(C)(C)C)cc1` (stereo partly drawn) [Compound 21, (2S,4R)-1-((2S)-2-(2-(2-((1-((4′-chloro-4-methyl-6-((4-(4-(((4-(((R)-4-morpholino-1-(phenylthio)butan-2-yl)amino)-3-((trifluoromethyl)sulfonyl)phenyl)sulfonyl)carbamoyl)phenyl)piperazin-1-yl)methyl)-2,3,4,5-tetrahydro-[1,1′-biphenyl]-4-yl)methyl)-1H-1,2,3-triazol-4-yl)methoxy)ethoxy)acetamido)-3,3-dimethylbutanoyl)-4-hydroxy-N—((S)-1-(4-(4-methylthiazol-5-yl)phenyl)ethyl)pyrrolidine-2-carboxamide]: the 50% inhibitory concentration (IC50) in the assay on MOLT-4 (setting [1]) lay within 100 to 500 nM; in the assay on RS4; 11 (setting [2]), 20 to 100 nM.

Take `Cc1ncsc1-c1ccc([C@H](C)NC(=O)[C@@H]2C[C@@H](O)CN2C(=O)[C@@H](NC(=O)CCCCCOCc2cn(CCCC(=O)NCC3(C)CCC(c4ccc(Cl)cc4)=C(CN4CCN(c5ccc(C(=O)NS(=O)(=O)c6ccc(N[C@H](CCN7CCOCC7)CSc7ccccc7)c(S(=O)(=O)C(F)(F)F)c6)cc5)CC4)C3)nn2)C(C)(C)C)cc1` (some centres unmarked) [Compound 22]: the IC50 in the assay with MOLT-4 (setting [1]) and in the assay with RS4; 11 (setting [2]) was 100 to 500 nM each time.

For the compound `Cc1ncsc1-c1ccc([C@H](C)NC(=O)[C@@H]2C[C@@H](O)CN2C(=O)[C@@H](NC(=O)COCCOCc2cn(CCCC(=O)NCC3(C)CCC(c4ccc(Cl)cc4)=C(CN4CCN(c5ccc(C(=O)NS(=O)(=O)c6ccc(N[C@H](CCN7CCOCC7)CSc7ccccc7)c(S(=O)(=O)C(F)(F)F)c6)cc5)CC4)C3)nn2)C(C)(C)C)cc1` (some centres unmarked) [Compound 23], the 50% inhibitory concentration (IC50) with MOLT-4 (setting [1]) and in the assay on RS4; 11 (setting [2]) was 500 to 10000 nM throughout.

For `Cc1ncsc1-c1ccc([C@H](C)NC(=O)[C@@H]2C[C@@H](O)CN2C(=O)[C@@H](NC(=O)CN2CCN(CC(=O)N3CCN(CC4(C)CCC(c5ccc(Cl)cc5)=C(CN5CCN(c6ccc(C(=O)NS(=O)(=O)c7ccc(N[C@H](CCN8CCOCC8)CSc8ccccc8)c(S(=O)(=O)C(F)(F)F)c7)cc6)CC5)C4)CC3)CC2)C(C)(C)C)cc1` (some centres unmarked) [Compound 25], the IC50 with MOLT-4 (setting [1]) and with RS4; 11 (setting [2]) was under 20 nM in each case.

Regarding `Cc1ncsc1-c1ccc([C@H](C)NC(=O)[C@@H]2C[C@@H](O)CN2C(=O)[C@@H](NC(=O)CC2CCN(CC(=O)N3CCN(CC4(C)CCC(c5ccc(Cl)cc5)=C(CN5CCN(c6ccc(C(=O)NS(=O)(=O)c7ccc(N[C@H](CCN8CCOCC8)CSc8ccccc8)c(S(=O)(=O)C(F)(F)F)c7)cc6)CC5)C4)CC3)CC2)C(C)(C)C)cc1` (some centres unmarked) [Compound 27], the IC50 in the assay on MOLT-4 (setting [1]) and in the assay on RS4; 11 (setting [2]) was 100 to 500 nM each time.

For the compound `Cc1ncsc1-c1ccc([C@H](C)NC(=O)[C@@H]2C[C@@H](O)CN2C(=O)[C@@H](NC(=O)CCCCCCC(=O)N2CCN(CCC3(C)CCC(c4ccc(Cl)cc4)=C(CN4CCN(c5ccc(C(=O)NS(=O)(=O)c6ccc(N[C@H](CCN7CCOCC7)CSc7ccccc7)c(S(=O)(=O)C(F)(F)F)c6)cc5)CC4)C3)CC2)C(C)(C)C)cc1` (stereo partly drawn) [Compound 28, (2S,4R)-1-((2S)-2-(8-(4-(2-(4′-chloro-4-methyl-6-((4-(4-(((4-(((R)-4-morpholino-1-(phenylthio)butan-2-yl)amino)-3-((trifluoromethyl)sulfonyl)phenyl)sulfonyl)carbamoyl)phenyl)piperazin-1-yl)methyl)-2,3,4,5-tetrahydro-[1,1′-biphenyl]-4-yl)ethyl)piperazin-1-yl)-8-oxooctanamido)-3,3-dimethylbutanoyl)-4-hydroxy-N—((S)-1-(4-(4-methylthiazol-5-yl)phenyl)ethyl)pyrrolidine-2-carboxamide], the IC50 with MOLT-4 (setting [1]) was in the range of 100 to 500 nM; in the assay on RS4; 11 (setting [2]), 20 to 100 nM.

As for `Cc1ncsc1-c1ccc([C@H](C)NC(=O)[C@@H]2C[C@@H](O)CN2C(=O)[C@@H](NC(=O)CCCCCCCC(=O)N2CCN(CCC3(C)CCC(c4ccc(Cl)cc4)=C(CN4CCN(c5ccc(C(=O)NS(=O)(=O)c6ccc(N[C@H](CCN7CCOCC7)CSc7ccccc7)c(S(=O)(=O)C(F)(F)F)c6)cc5)CC4)C3)CC2)C(C)(C)C)cc1` (stereo partly drawn) [Compound 29, (2S,4R)-1-((2S)-2-(9-(4-(2-(4′-chloro-4-methyl-6-((4-(4-(((4-(((R)-4-morpholino-1-(phenylthio)butan-2-yl)amino)-3-((trifluoromethyl)sulfonyl)phenyl)sulfonyl)carbamoyl)phenyl)piperazin-1-yl)methyl)-2,3,4,5-tetrahydro-[1,1′-biphenyl]-4-yl)ethyl)piperazin-1-yl)-9-oxononanamido)-3,3-dimethylbutanoyl)-4-hydroxy-N—((S)-1-(4-(4-methylthiazol-5-yl)phenyl)ethyl)pyrrolidine-2-carboxamide], the 50% inhibitory concentration (IC50) in the assay on MOLT-4 (setting [1]) lay in the range of 100 to 500 nM; in the assay on RS4; 11 (setting [2]) it was 20 to 100 nM.

As for `Cc1ncsc1-c1ccc([C@H](C)NC(=O)[C@@H]2C[C@@H](O)CN2C(=O)[C@@H](NC(=O)CCCCCCCCC(=O)N2CCN(CCC3(C)CCC(c4ccc(Cl)cc4)=C(CN4CCN(c5ccc(C(=O)NS(=O)(=O)c6ccc(N[C@H](CCN7CCOCC7)CSc7ccccc7)c(S(=O)(=O)C(F)(F)F)c6)cc5)CC4)C3)CC2)C(C)(C)C)cc1` (stereo partly drawn) [Compound 30, (2S,4R)-1-((2S)-2-(10-(4-(2-(4′-chloro-4-methyl-6-((4-(4-(((4-(((R)-4-morpholino-1-(phenylthio)butan-2-yl)amino)-3-((trifluoromethyl)sulfonyl)phenyl)sulfonyl)carbamoyl)phenyl)piperazin-1-yl)methyl)-2,3,4,5-tetrahydro-[1,1′-biphenyl]-4-yl)ethyl)piperazin-1-yl)-10-oxodecanamido)-3,3-dimethylbutanoyl)-4-hydroxy-N—((S)-1-(4-(4-methylthiazol-5-yl)phenyl)ethyl)pyrrolidine-2-carboxamide], the IC50 with MOLT-4 (setting [1]) lay within 100 to 500 nM; with RS4; 11 (setting [2]), 20 to 100 nM.

With `Cc1ncsc1-c1ccc([C@H](C)NC(=O)[C@@H]2C[C@@H](O)CN2C(=O)[C@@H](NC(=O)CN2C3CC2CN(CC(=O)N2CCN(CC4(C)CCC(c5ccc(Cl)cc5)=C(CN5CCN(c6ccc(C(=O)NS(=O)(=O)c7ccc(N[C@H](CCN8CCOCC8)CSc8ccccc8)c(S(=O)(=O)C(F)(F)F)c7)cc6)CC5)C4)CC2)C3)C(C)(C)C)cc1` (some centres unmarked) [Compound 31], the 50% inhibitory concentration (IC50) in the assay with MOLT-4 (MOLT-4, 48 h, read-out: Anti-Cancer Activity IC50 (48 hr) MOLT-4) fell in the range of 100 to 500 nM; in the assay on RS4; 11 (RS4-11, 48 h, read-out: Anti-Cancer Activity IC50 (48 hr) RS4, 11), 100 to 500 nM.

As for `Cc1ncsc1-c1ccc([C@H](C)NC(=O)[C@@H]2C[C@@H](O)CN2C(=O)[C@@H](NC(=O)CCCCCCC(=O)N2CCN(CC3(C)CCC(c4ccc(Cl)cc4)=C(CN4CCN(c5ccc(C(=O)NS(=O)(=O)c6ccc(N[C@H](CCN7CCOCC7)CSc7ccccc7)c([N+](=O)[O-])c6)cc5)CC4)C3)CC2)C(C)(C)C)cc1` (stereo partly drawn) [Compound 33, (2S,4R)-1-((2S)-2-(8-(4-((4′-chloro-4-methyl-6-((4-(4-(((4-(((R)-4-morpholino-1-(phenylthio)butan-2-yl)amino)-3-nitrophenyl)sulfonyl)carbamoyl)phenyl)piperazin-1-yl)methyl)-2,3,4,5-tetrahydro-[1,1′-biphenyl]-4-yl)methyl)piperazin-1-yl)-8-oxooctanamido)-3,3-dimethylbutanoyl)-4-hydroxy-N—((S)-1-(4-(4-methylthiazol-5-yl)phenyl)ethyl)pyrrolidine-2-carboxamide], the half-maximal inhibitory concentration (IC50) in the assay on MOLT-4 (setting [1]) is 20 to 100 nM; in the assay on RS4; 11 (setting [2]), under 20 nM.

As for `Cc1ncsc1-c1ccc([C@H](C)NC(=O)[C@@H]2C[C@@H](O)CN2C(=O)[C@@H](NC(=O)CCCCCCC(=O)N2CCN(CC3(C)CCC(c4ccc(Cl)cc4)=C(CN4CCN(c5ccc(C(=O)NS(=O)(=O)c6ccc(N[C@H](CCN(C)C)CSc7ccccc7)c([N+](=O)[O-])c6)cc5)CC4)C3)CC2)C(C)(C)C)cc1` (stereo partly drawn) [Compound 34, (2S,4R)-1-((2S)-2-(8-(4-((4′-chloro-6-((4-(4-(((4-(((R)-4-(dimethylamino)-1-(phenylthio)butan-2-yl)amino)-3-nitrophenyl)sulfonyl)carbamoyl)phenyl)piperazin-1-yl)methyl)-4-methyl-2,3,4,5-tetrahydro-[1,1′-biphenyl]-4-yl)methyl)piperazin-1-yl)-8-oxooctanamido)-3,3-dimethylbutanoyl)-4-hydroxy-N—((S)-1-(4-(4-methylthiazol-5-yl)phenyl)ethyl)pyrrolidine-2-carboxamide], the IC50 in the assay with MOLT-4 (setting [1]) and in the assay with RS4; 11 (setting [2]) was under 20 nM in each case.
